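How tested: cells in 96-well plates exposed to compound for 48 hours at five concentrations. GI50: concentration for 50% inhibition of growth. TGI is the concentration that stops growth completely.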
Assays:
Assay in all cases: NCI tumour cell line growth inhibition, 48 h
[1] = test system: SR leukemia
[2] = test system: TK-10 renal
[3] = test system: HOP-62 NSCLC
[4] = test system: NCI-H226 lung
[5] = test system: UO-31 renal
[6] = test system: NCI-H23 lung
[7] = test system: T-47D breast
[8] = test system: HL-60(TB) leukemia
[9] = test system: OVCAR-4 ovarian
[10] = test system: BT-549 breast
[11] = test system: MDA-N

SMILES | TGI [1] | TGI [2] | TGI [3] | TGI [4] | TGI [5] | TGI [6] | TGI [7] | TGI [8] | TGI [9] | GI50 [2] | GI50 [3] | GI50 [5] | GI50 [6] | TGI [10] | TGI [11] | GI50 [10] | GI50 [4] | GI50 [9] | GI50 [8] | GI50 [11]
Cc1nnc2sc(-c3ccc(N)cc3)nn12 | > 100 µM | > 100 µM | > 100 µM | > 100 µM | > 100 µM | > 100 µM | > 100 µM | > 100 µM | > 100 µM |  |  |  |  |  |  |  |  |  |  | 
CCOC(=O)C1=C(C)N2CCCOC2(C)C(C(=O)OC)C1c1cccc([N+](=O)[O-])c1 (centres undefined) | > 100 µM | > 100 µM | > 100 µM | > 100 µM | > 100 µM | > 100 µM |  | > 100 µM |  |  |  |  |  |  |  |  |  |  |  | 
CC(=O)O[C@H]1CC[C@]2(C)[C@H]3C(=O)C=C4[C@@H]5C[C@](C)(C(=O)N6CCCNCC6)CC[C@]5(C)CC[C@@]4(C)[C@]3(C)CC[C@H]2C1(C)C |  | 3.45 µM | 4.14 µM |  | 2.82 µM | 3.37 µM |  |  |  | 1.77 µM | 1.78 µM | 1400 nM | 1.73 µM |  |  |  |  |  |  | 
O=[N+]([O-])/C=C/c1cccc(F)c1 |  | 14.3 µM | 32.4 µM | 6.05 µM | 5.87 µM | 17.9 µM | 72.5 µM |  | 16.8 µM |  |  |  |  | 4.91 µM | 14 µM |  |  |  |  | 
COc1cc2c(cc1OC)C(C1(O)CCCCC1)NCC2 (centres undefined) | > 100 µM | > 100 µM | > 100 µM | > 100 µM | > 100 µM | > 100 µM |  | > 100 µM |  |  |  |  |  |  |  |  |  |  |  | 
C=C(/C=C/C=C(/CCC=C(C)C)COC(C)=O)[C@@H]1CC[C@]2([C@H](CCCO)/C(=C(/C)C=O)CC[C@]2(C)O)[C@@H]1O |  | 31.3 µM |  | 19.6 µM | 25.6 µM | 35.5 µM |  | 11.1 µM |  |  |  |  |  |  |  |  |  |  |  | 
Cc1c(Cl)c(S(N)(=O)=O)cc(S(N)(=O)=O)c1NC(=O)c1ccc(Cl)cc1 |  | > 100 µM | > 100 µM | > 100 µM | > 100 µM | > 100 µM | > 100 µM | > 100 µM | > 100 µM |  |  |  |  | > 100 µM | > 100 µM |  |  |  |  | 
NC(Cc1ccc2oc3cc(=O)c4ccccc4c-3nc2c1)C(=O)O (centres undefined) | 67.6 µM | > 97.2 µM | 76.3 µM | 73.1 µM | > 100 µM | 16.3 µM | > 84.7 µM | 76.2 µM | > 88.9 µM |  |  |  |  | 40.5 µM | 14.8 µM |  |  |  |  | 
Nc1nc(Cl)cc(NCCCCO)n1 | > 100 µM | > 100 µM | > 10 µM | > 100 µM | > 100 µM | > 100 µM |  | > 100 µM | > 100 µM |  |  |  |  |  |  |  |  |  |  | 
NC(=O)c1nnc2cc(F)c(F)cc2c1N | > 100 µM | > 100 µM | 39.6 µM | 73.6 µM | > 100 µM | > 100 µM | > 100 µM | > 100 µM | > 100 µM |  |  |  |  | 45.6 µM | > 100 µM |  |  |  |  | 
N=C(N)SC1c2ccccc2-c2cc([N+](=O)[O-])ccc21 (centres undefined) | 21.9 µM | 21.3 µM | 21.2 µM | 21 µM | 20.3 µM | 18.3 µM | 16.2 µM | 11.9 µM | 17.3 µM |  |  |  |  | 19.3 µM | 10.9 µM |  |  |  |  | 
C#CCCCCC#CC1CCCC1C1=CC(=O)c2ccccc21 (centres undefined) | > 100 µM | 34.5 µM | 20.3 µM | 29.8 µM | 21.3 µM | 24.5 µM |  | 3.93 µM | 23.9 µM |  |  |  |  |  |  |  |  |  |  | 
CN[C@@H]1[C@H](O)[C@H](NC)[C@H]2O[C@@]3(O)C(=O)C[C@@H](C)O[C@H]3O[C@@H]2[C@H]1O | > 100 µM |  | > 100 µM | > 100 µM | > 100 µM | > 100 µM | > 100 µM | > 100 µM | > 100 µM |  |  |  |  | > 100 µM | > 100 µM |  |  |  |  | 
CCCNCC(O)/C=C/[Si](C)(C)C (centres undefined) (tested in a mixture with another compound) | > 100 µM | > 100 µM |  |  | > 100 µM | > 100 µM |  | > 100 µM |  |  |  |  |  |  |  |  |  |  |  | 
Cc1c2ccccc2nc2[nH]c3ccncc3c12 | > 100 µM | 59.4 µM | 62 µM |  | > 100 µM | 74.3 µM | > 100 µM | > 100 µM | > 100 µM |  |  |  |  | > 100 µM | > 100 µM |  |  |  |  | 
C[n+]1ccccc1/C=C/c1ccc2c(c1)OCO2 | > 10 µM | > 10 µM | > 10 µM | > 10 µM |  | > 10 µM | > 10 µM | > 10 µM | > 10 µM |  |  |  |  | > 10 µM | > 10 µM |  |  |  |  | 
CC1(C)[C@@H]2C[C@H]1C(Cc1ccccc1C[C@H]1c3cc(-c4ccccn4)ncc3[C@H]3C[C@@H]1C3(C)C)c1cc(-c3ccccn3)ncc12 (some centres undefined) | 1.28 µM | > 78.7 µM | 0.328 µM |  | 2.41 µM | > 100 µM | 3.6 µM | 0.65 µM | > 100 µM |  |  |  |  | > 31.6 µM | > 100 µM |  |  |  |  | 
CCCCCCc1ccc(O)cc1O |  |  | > 100 µM | > 100 µM | 86.7 µM | > 100 µM |  | > 100 µM | > 100 µM |  |  |  |  |  |  |  |  |  |  | 
Oc1ccc2ccccc2c1N=Nc1ccc(N=Nc2ccccc2)cc1 | 88.2 µM | > 100 µM | > 100 µM | > 100 µM | > 100 µM | > 100 µM | > 100 µM | 12 µM | > 100 µM |  |  |  |  | > 100 µM | > 100 µM |  |  |  |  | 
O=S(=O)(O)c1cc(O)c2c(O)c(N=Nc3ccc(/C=C/c4ccc(N=Nc5c(S(=O)(=O)O)cc6cc(S(=O)(=O)O)cc(O)c6c5O)cc4S(=O)(=O)O)c(S(=O)(=O)O)c3)c(S(=O)(=O)O)cc2c1 | > 100 µM | > 100 µM | > 100 µM | > 100 µM | > 100 µM | > 100 µM |  | > 100 µM | > 100 µM |  |  |  |  |  |  |  |  |  |  | 
CCOC(=O)C1=C(C)N(Cc2ccc(Cl)cc2Cl)C2(O)C(OC)CC(=O)C3C(=O)N(c4ccccc4)C(=O)C132 (centres undefined) |  | 22.8 µM | 2.51 µM | 9.02 µM | 18.7 µM | 15.7 µM | 2.57 µM | 6.9 µM | 8.05 µM |  |  |  |  | 5.61 µM |  |  |  |  |  | 
Cc1ccc(NCCN(C)CC(C)O)c2c(=O)c3ccc(Cl)cc3sc12 (centres undefined) |  | > 100 µM |  | > 100 µM |  |  |  |  | 81.8 µM | 5.08 µM |  |  |  | > 100 µM |  | 5.14 µM | 5.45 µM | 8.47 µM |  | 
CN(C)CCNc1ccc2nnn3c4ccc(Cl)cc4c(=O)c1c23 | 10.1 µM | 22.1 µM | 21.4 µM | 5.31 µM | 9.41 µM | 18.7 µM | 49.2 µM | 19.9 µM | 15.9 µM |  |  |  |  | 34.8 µM | 16.9 µM |  |  |  |  | 
COc1cc2c(cc1O)CCN[C@@]21CS[C@H]2c3c(OC(C)=O)c(C)c4c(c3C(COC1=O)N1C2C2c3c(cc(C)c(OC)c3O)CC([C@@H]1O)N2C)OCO4 (some centres undefined) | 0.00131 µM |  | < 1e-06 µM | < 1e-06 µM | < 1e-06 µM |  | > 1 µM | < 1e-06 µM |  |  |  | < 0.001 nM |  | 0.00987 µM | 0.0108 µM |  | < 1e-06 µM |  | < 1 pM | 0.00247 µM

Source: PubChem BioAssay (NCI)
